Assay results published in patent publication US8673617B2, “Culture medium for Haemophilus influenzae type B” (Sanofi Pasteur SA, priority 2007, dated 2014).

What was measured:
[1] = tested on: Haemophilus influenzae serotype b; test: PRP production in liquid garden pea peptone-based culture medium as a function of heme source (sandwich ELISA on supernatant); format: cell-based
Protocol: The production of PRP obtained after 16 hours of bacterial culture in liquid plant peptones-based culture media in which the heme source was either hemin or protoporphyrin IX of animal origin (porcine protoporphyrin) in disodium salt form, or protoporphyrin IX of purely synthetic origin in disodium salt form was compared. […] An enzymatic hydrolysate of garden pea peptone provided by Kerry (Hy pea 7404) and a wheat peptone provided by Organotechnie (19559) were tested at a concentration in the culture medium equivalent to 0.87 g/l of protein nitrogen. By reference to the current methods for the production of PRP, PRP production was also measured in a medium that contains a peptone of animal origin, such as casein hydrolysate (HAC) provided by Solabia at a concentration in the medium equivalent to 0.87 g/l with increased concentrations of hemin (see table III).
(§1) 1.1) Preparation of the Media • 1.1.1. Stock solution of β-NAD (Fluka) at 1 g/l in water which was ultrafiltered and then sterilized by filtration through 0.22 μm. • 1.1.2. Stock solution of hemin (Sigma) at 0.25 g/l in water was ultrafiltered, comprising 5 ml of 25% aqueous ammonia (Cooper) to aid dissolution. The stock solution was sterilized by filtration through 0.22 μm. • 1.1.3. Stock solution of porcine protoporphyrin IX (Sigma) at 0.25 g/l in ultrafiltered water comprising 5 ml of 25% aqueous ammonia (Cooper) in order to facilitate the dissolution. The stock solution was sterilized by filtration through 0.22 μm. • 1.1.4. Stock solution of synthetic protoporphyrin IX at 0.25 g/l in ultrafiltered water comprising 5 ml of 25% aqueous ammonia (Cooper) in order to facilitate the dissolution. The stock solution was also heated to 80° C. in a water bath with stirring in order to complete the dissolution before being sterilized by filtration through 0.22 μm. The protoporphyrin IX, in disodium salt form, was synthesized according to the method described in the U.S. provisional patent application Ser. No. 12/057,574, filed Mar. 28, 2008 and application Ser. No. 60/943,735 and filed on Jun. 13, 2007 using the steps which are described in scheme 2. • The stock solutions of hemin and protoporphyrin IX were checked for their respective contents of active compounds after sterilizing filtration. The protoporphyrin IX and hemin contents were determined by Reversed Phase High Performance Liquid Chromatography (RP-HPLC). The chromatographic chain comprises a twin head pump module allowing the formation of a binary gradient, a programmable automatic injector, a diode array UV detector and a chromatographic column of the type Synergi 4 μm, Polar RP-80A (150×4.6) mm, ref 00F-4336-E0, Phenomenex. • The stock solution of hemin (Sigma) to be checked after filtration was diluted ⅓ in distilled water. The stock solutions of porcine protoporphyrin IX (Sigma) and of synthetic protoporphyrin IX to be checked after filtration were diluted ¼ in distilled water. In parallel, a calibration series was prepared in ammoniated water ranging from 0.025 g/l to 0.125 g/l of protoporphyrin IX from porcine protoporphyrin IX from Sigma (ref: 25838-5) and a calibration series ranging from 0.050 g/l to 0.150 g/l of hemin from hemin from Sigma (ref: H5533-256). The samples to be checked and the various solutions of the calibration series were injected in a volume of 20 μl (for the hemin solutions and samples) and of 5 μl (for the protoporphyrin IX solutions and samples). The initial mobile phase consisting of a volume for volume mixture of acetonitrile and 10 mM KH2PO4 pH 2.5 is set at a flow rate of 1 ml/min. A discontinuous gradient was then produced from this mobile phase in order to separate the molecules of interest which are detected at a wavelength of 400 nm. […]

[2] = tested on: Haemophilus influenzae serotype b; test: PRP production in liquid wheat peptone-based culture medium as a function of heme source (sandwich ELISA on supernatant); format: cell-based
Protocol: The production of PRP obtained after 16 hours of bacterial culture in liquid plant peptones-based culture media in which the heme source was either hemin or protoporphyrin IX of animal origin (porcine protoporphyrin) in disodium salt form, or protoporphyrin IX of purely synthetic origin in disodium salt form was compared. The hemin and protoporphyrin IX concentration ranges in the culture media varied from about 0.010 g/l to about 2 g/l so as to obtain PRP titration curves as a function of the heme source tested and as a function of the plant peptone tested. An enzymatic hydrolysate of garden pea peptone provided by Kerry (Hy pea 7404) and a wheat peptone provided by Organotechnie (19559) were tested at a concentration in the culture medium equivalent to 0.87 g/l of protein nitrogen. By reference to the current methods for the production of PRP, PRP production was also measured in a medium that contains a peptone of animal origin, such as casein hydrolysate (HAC) provided by Solabia at a concentration in the medium equivalent to 0.87 g/l with increased concentrations of hemin (see table III).
as §1

Substance: protoporphyrin IX
- protoporphyrin IX concentration to obtain about 400 mg/l of PRP ([1]; garden pea peptone and protoporphyrin IX-based medium): about 100 μg/l
- times less protoporphyrin IX than hemin required for maximum PRP production ([1]; garden pea peptone medium): About 12.5 times
- heme source concentration required for optimum / maximum PRP production ([1]; garden pea peptone medium (FIG. 1)): about 200 μg/l
- optimum PRP production ([1]; garden pea peptone medium, about 200 μg/l): ≈ 480 mg/l
- PRP concentration in the culture supernatant at maximum production ([1]; plant peptone medium, 100 to 200 μg/l): 0.4 g/L
- production of PRP (in words) ([1]; plant peptone medium, heme source at 10 μg/l): significant production of PRP
- production of PRP ([1]; plant peptone medium, heme source at 50 μg/l (FIGS. 1 and 2)): ≥ 100 µg/L
- protoporphyrin IX concentration to obtain about 400 mg/l of PRP ([2]; wheat peptone and protoporphyrin IX-based medium): about 100 μg/l
- times less protoporphyrin IX than hemin required for maximum PRP production ([2]; wheat peptone medium): About 15 times
- heme source concentration required for optimum / equivalent PRP production ([2]; wheat peptone medium (FIG. 2)): about 100 μg/l
- optimum PRP production ([2]; wheat peptone medium, about 100 μg/l): ≈ 400 mg/l
